The source of these data is ChEMBL document CHEMBL5150053, “Carboxymethyl tethered poly(disubstituted)triazoles built on nucleoside skeletons: A unique class of ribonuclease A inhibitors designed using chemical logic” (Bioorg Med Chem, 2022).

Test [1] is described as follows: Competitive reversible inhibition of bovine pancreatic RNase A using 2',3'-cCMP as substrate assessed as inhibition constant by spectrophotometric analysis. Details: species or system Bos taurus.
The species named for test [2] is Bos taurus. The test can be described thus: Inhibition of bovine pancreatic RNase A using tRNA as substrate assessed as substrate degradation preincubated with compound for 3 hrs followed by substrate addition and measured after 30 mins by ethidium bromide staining based agarose gel electrophoresis analysis. Particulars: time 3.5 hrs.
Test [3] can be described thus: Competitive inhibition of bovine pancreatic RNase A using 2',3'-cCMP as substrate assessed as inhibition constant by spectrophotometric analysis. Details: species or system Bos taurus.
For test [4], the species on record is Bos taurus. Nature of the test: Uncompetitive inhibition of bovine pancreatic RNase A using 2',3'-cCMP as substrate assessed as Michaelis-Menten constant (Km) by Lineweaver-burk plot analysis (reference value: 9.35 x 10^-4 M).
Test [5] is described as follows: Uncompetitive inhibition of bovine pancreatic RNase A using 2',3'-cCMP as substrate assessed as inhibition constant by spectrophotometric analysis. Also noted: species or system Bos taurus.
Test [6] can be described thus: Linear mixed type inhibition of bovine pancreatic RNase A using 2',3'-cCMP as substrate assessed as inhibition constant by spectrophotometric analysis. Also noted: species or system Bos taurus.
A short description of test [7]: Hyperbolic partial competitive inhibition of bovine pancreatic RNase A using 2',3'-cCMP as substrate assessed as inhibition constant by spectrophotometric analysis. Details: species or system Bos taurus.

Molecules are shown by their SMILES. The source made the active and inactive calls. The rule behind the calls is not given here.

A word on the Ki: it is the dissociation constant of the complex between target and ligand, obtained from inhibition or displacement. For `Nc1ccn([C@@H]2O[C@H](CO)[C@@H](S(=O)(=O)CC(=O)O)[C@H]2O)c(=O)n1`, in test [1], the Ki turned out to be 1.75 µM.
With `O=C(O)Cn1cc(Cn2c(=O)ccn([C@@H]3O[C@H](CO)[C@@H](O)[C@H]3O)c2=O)nn1`, the inhibition result in test [2] was “Active”. Also, the Ki in test [3] is 55.4 µM.
On to `O=C(O)Cn1cc(COC[C@H]2O[C@@H](n3ccc(=O)n(Cc4cn(CC(=O)O)nn4)c3=O)[C@H](OCc3cn(CC(=O)O)nn3)[C@@H]2OCc2cn(CC(=O)O)nn2)nn1`, for which the inhibition result in test [2] was “Active”. For the same compound, the Ki in test [3] worked out at 74.1 µM.
On to `O=C(O)CS(=O)(=O)[C@H]1[C@@H](O)[C@H](n2ccc(=O)[nH]c2=O)O[C@@H]1CO`, for which the Ki in test [1] is 2 µM.
Same read-out and setting: to `Cc1cn([C@H]2C[C@H](S(=O)(=O)O)[C@@H](CO)O2)c(=O)[nH]c1=O` belongs 2.08 µM; to `O=S(=O)(O)CCn1cc(CO[C@@H]2O[C@H](Cn3cc(CS(=O)(=O)O)nn3)[C@@H](O)[C@H]2O)nn1`, 29 µM.
Broadly, the Km is the concentration of substrate that gives half-maximal velocity. Consider `Cc1cn([C@H]2C[C@H](O)[C@@H](CO)O2)c(=O)n(Cc2cn(CC(=O)O)nn2)c1=O`, for which the Km in test [4] turned out to be 585 µM. Moreover, the inhibition entry in test [2] is “Active”. Moreover, in test [5], the Ki turned out to be 232 µM.
`Cc1cn([C@H]2C[C@H](OCc3cn(CC(=O)O)nn3)[C@@H](COCc3cn(CC(=O)O)nn3)O2)c(=O)[nH]c1=O`: the inhibition result in test [2] was “Active”. The Ki in test [6] stood at 211 µM.
As to `O=C(O)Cn1cc(COC[C@H]2O[C@@H](n3ccc(=O)n(Cc4cn(CC(=O)O)nn4)c3=O)[C@H](O)[C@@H]2O)nn1`, in test [2], the inhibition result was “Active”. Moreover, the Ki in test [3] came to 198 µM.
Regarding `Cc1cn([C@H]2C[C@H](OCc3cn(CC(=O)O)nn3)[C@@H](COCc3cn(CC(=O)O)nn3)O2)c(=O)n(Cc2cn(CC(=O)O)nn2)c1=O`, the inhibition entry in test [2] was “Active”. Besides, in test [7], the Ki came out at 2.3 µM.
For the compound `Cc1cn([C@H]2C[C@H](OCc3cn(CC(=O)O)nn3)[C@@H](CO)O2)c(=O)n(Cc2cn(CC(=O)O)nn2)c1=O`, the inhibition entry in test [2] is “Active”. The Ki in test [3] was 352 µM.
In the case of `O=c1ccn([C@@H]2O[C@H](CO)[C@@H](S(=O)(=O)O)[C@@H]2O)c(=O)[nH]1`, the Ki in test [1] was 0.96 µM.
On the same count and under the same terms, to `O=C(O)c1nnn(C[C@H]2O[C@@H](OCc3cn(CCS(=O)(=O)O)nn3)[C@H](O)[C@@H]2O)c1C(=O)O` belongs 46 µM.
